Measurements taken from US20260235546A1, “Methods and Systems for Interrogating Electrochemical Sensors” (The Regents of the University of California, priority 2023, published 2026).
Where “and” joins values, the source holds several entries; their conditions need not be identical. Equal entries are not always repeated. One block for each compound: values may come before it.

What was measured:
[1] = FFT-EIS-interrogated lactate-detecting EAB sensor, real-time plasma lactate in a living rat; format: in vivo, Sprague-Dawley rats; details: about 1000 mg/kg sodium lactate intravenously
Experimental: FFT-EIS can be used to interrogate in vivo EAB sensors to monitor plasma lactate concentrations in a live rat in real time (FIGS. 13A and 13B). Lactate is an important clinical biomarker for sepsis and hypoxia during anesthesia, and lactate levels are useful to monitor sport performances. FFT-EIS is used to characterize the lactate-detecting EAB sensor in undiluted blood held at about 37° C. by stepwise changing the lactate level and measuring the corresponding ket value (FIG. 13A). […] Lactate concentrations can be determined in real time in a living rat by measuring changes in ket when employing the lactate detecting EAB sensor (FIG. 13B). Stable concentrations were measured prior to intravenously infusing about 1000 mg/kg sodium lactate.
The lactate aptamer is modified with a six-carbon thiol and the redox reporter methylene blue. The aptamer was reduced for 1 h in a solution containing about 11.26 μM aptamer and 8.87 mM TCEP and subsequently diluted till 500 nM in a PBS buffer plus 2 mM MgCl2. The intravenous sensors were fed through 20-gauge catheters and used the in vitro sensors as is. To form the lactate-detecting EAB sensor, the aptamer was deposited on the gold electrode by immersing the electrode for 1 h in a 500 nM reduced lactate aptamer solution followed by overnight immersion in 10 mM 6-mercaptohexanol to form a self-assembled monolayer. […]

[2] = tested on: phenylalanine-detecting EAB sensor (methylene-blue-modified aptamer); test: FFT-EIS binding curve of phenylalanine-detecting EAB sensor in whole, freshly-collected rat's blood at 37° C
Experimental: (§1) To functionalize the working electrode the disulfide bond was first reduced in the stock alkanethiol-and-methylene-blue modified aptamer by combining 14 μL of 10 mM tris (2-carboxyethyl) phosphine with 2 μL of 100 μM DNA for 1 h in the dark. The gold electrodes were electrochemically cleaned and roughened with Millipore water and followed by immersion for 1 h in 500 nM reduced DNA in PBS. The electrodes were then transferred to a 10 mM solution of 6-mercapto-1-hexanol in PBS and stored overnight before use.
All electrochemical measurements were performed using an Autolab PGStat128N. The potentiostat was configured in “high stability mode” with a current range of ±1 μA, which affects the filter characteristics. For FFT-EIS measurements, the multi-sin waveform was generated by a DG812 arbitrary waveform generator (Rigol Technologies) and fed into the potentiostat's external voltage input using a BNC connection. The voltage waveform consisted of a superposition of 18 sine waves at logarithmically spaced frequencies ranging from 1 Hz to 1 kHz. The amplitude and phase of each sinusoidal oscillation were optimized for maximum signal-to-noise as discussed in the supporting information of Example 7, and the summed waveform was scaled to have a peak-to-peak amplitude of 25 mV. The potentiostat's native software (NOVA) was used to set the DC bias—the formal potential of methylene blue, as measured by cyclic voltammetry—on top of the AC perturbation. Voltage and current were recorded at 70 kHz using an SDS1202X-E oscilloscope. […] Data recording and processing were controlled by a custom Python program. Further details on the chosen waveform and artefact correction are described in supporting information of Example 7 (FIG. 7, FIG. 9, FIG. 11).
Impedance spectra were fitted to the equivalent circuit model using MEISP 3.0 after each experiment was complete. […]
Reference is made to FIG. 12. […] The endogenous concentration of phenylalanine in the blood (52 μM) was determined e using a fluorescent assay kit. […]

[3] = FFT-EIS-interrogated EAB sensor in jugular vein, real-time phenylalanine concentration in fasted and non-fasted rats; format: in vivo, Sprague-Dawley rats
Experimental: (§2) All in vivo experiments were performed on male Sprague-Dawley rats (4-5 months old). The rats weighed between 350-500 g and were pair-housed in a standard light cycle room (12:12 regular light cycle with lights on at 8 AM). They were allowed ad libitum access to food and water and the Institutional Animal Care and Use Committee (IACUC) of the University of California at Santa Barbara approved the experimental protocol which adhered to the guidelines given by the NIH Guide for Care and Use of Laboratory Animals.
Prior to the measurement, the rats were anesthetized using 4% isofluorane in a Plexiglas anesthesia chamber. Anesthesia was then maintained via a nose cone for the entire duration of the experiment at a level of 2-3% isofluorane. The neck was shaved and dissected in order to surgically isolate the left and right jugular veins. After isolating the two jugular veins, each one was tied off using sterile 6-0 silk sutures. Prior to the measurement, the wires in the sensor were adjusted such that the counter and working electrode were exposed outside of the 20G catheter into the vein as previously described. A small incision was then made in each vein using spring-loaded microscissors that allowed us to insert the sensor-containing catheter into the right jugular vein and an infusion line into the left jugular vein. Both the sensor and drug infusion catheter were anchored in place using two sterile 6-0 silk sutures. 30 units of heparin were infused through the infusion line immediately after insertion of the sensor and prior to any recordings. To intravenously dose the rats at 30 mg/kg a precalculated volume of 0.05 M vancomycin solution was injected using a syringe pump.
Specifically, after calibrating a phenylalanine-detecting EAB sensor in vitro, FFT-EIS interrogation was used to measure the molecule's concentration in the jugular veins of anesthetized rats with 1.8 s resolution. Doing so, it was observed baseline phenylalanine concentrations of 41±10 μM (the latter reflects one standard deviation) in a fasted animal and 39±6 μM in a non-fasted animal, values in line with previous reports. Upon two intravenous infusions of additional phenylalanine, rapid rises to peak concentrations of 300-400 μM were observed, followed by rapid decays back to baseline in the fasted animal.
Reference is made to FIG. 6. Using FFT-EIS to interrogate phenylalanine-detecting EAB sensors this metabolite has been monitored in situ in the jugulars of live rats with 1.8 s resolution. Reference Is made to panel (A). A fasted animal was infused with two sequential doses of phenylalanine. In both cases, the concentration of free phenylalanine in the blood quickly decayed back to the pre-infusion baseline (41±10 μM, 31±9 μM, and 25±10 μM before injection, after the first injection, and after the final injection, respectively). Reference is made to Panel (B). In contrast, the return to the post-infusion baseline was slower in a non-fasted animal, which is consistent with previous reports regarding phenylalanine homeostasis. Here, the raw data (light points) are smoothed using a 13-s rolling average (darker trace). Concentration decay transients were fitted to a two compartment (i.e., biexponential) model (black traces).

[4] = FFT-EIS-interrogated EAB sensor in jugular vein, real-time plasma vancomycin after intravenous infusion; format: in vivo, Sprague-Dawley rats; details: rat jugular vein
Experimental: as §2
Prior to the measurement, the rats were anesthetized using 4% isofluorane in a Plexiglas anesthesia chamber. […]
Aptamer-modified gold wire working electrodes were bundled with platinum counter and silver-silver chloride reference electrodes in a 20-gauge catheter (FIG. 4, panel A), and surgically inserted the resulting three-electrode sensor into the right jugular vein of an anesthetized rat. Full impedance spectra (containing 18 frequencies between 1 Hz and 1 kHz, FIG. 9) was then measured every 1.8 second for 2.5 hours. […]
FFT-EIS interrogation of EAB sensors provides a highly-time-resolved window into molecular physiology and pharmacokinetics (FIG. 5, panel A). […] Prior to drug infusion, vancomycin concentrations were measured fluctuating tightly around zero (1.1±1.7 μM). […]

[5] = target: vancomycin-detecting EAB sensor (methylene-blue-modified aptamer); test: FFT-EIS binding curve (ket vs concentration) of vancomycin-detecting EAB sensor in whole bovine blood at 37° C; details: ± = estimated 95% confidence intervals, read-out: dissociation constant (KD), Hill-Langmuir isotherm fit of ket
Experimental: as §1
All electrochemical measurements were performed using an Autolab PGStat128N. The potentiostat was configured in “high stability mode” with a current range of ±1 μA, which affects the filter characteristics. […] The potentiostat's native software (NOVA) was used to set the DC bias—the formal potential of methylene blue, as measured by cyclic voltammetry—on top of the AC perturbation. Voltage and current were recorded at 70 kHz using an SDS1202X-E oscilloscope. […]
Reference is made to FIG. 3. In panel (A) the vancomycin-detecting EAB sensor was immersed in whole bovine blood at 37° C. and challenged with increasing quantities of the target molecule. […]
The impedimetric properties of EAB sensors, which are sensitive to target concentration, can be rapidly measured using FFT-EIS to enable highly-time resolved molecular measurements. […]

[6] = fasted animal, first injection, ± = 95% confidence intervals
[7] = fasted animal, second injection, ± = 95% confidence intervals

Structure (SMILES): CC(O)C(=O)O (stereo not drawn) [lactate]
- plasma lactate level course after infusion [1]: gradually returned to the prior baseline

- ket,0 (ket in the absence of phenylalanine) ([2]; fitted): 62.9 s⁻¹
- ket,max (ket at saturating phenylalanine) ([2]; fitted): 225.8 s⁻¹
- Kd ([2]; read-out: dissociation constant KD, Langmuir isotherm fit of ket): 6.89 mM
- baseline concentration after the final injection ([3]; fasted animal): 25 ± 10 µM
- baseline concentration after the first injection ([3]; fasted animal): 31 ± 9 µM
- time constant τ1, biexponential decay [3, 6]: 0.2 ± 0.1 min
- time constant τ2, biexponential decay [3, 6]: 3.8 ± 0.2 min
- time constant τ1, biexponential decay [3, 7]: 1.7 ± 0.1 min
- time constant τ2, biexponential decay [3, 7]: 20 ± 2 min
- peak concentration after intravenous infusion ([3]; fasted animal, two intravenous infusions): 300 to 400 µM
- baseline concentration before injection ([3]; fasted animal, ± = one standard deviation): 41 ± 10 µM
- baseline concentration ([3]; non-fasted animal): 39 ± 6 µM
- time constant T2, biexponential decay ([3]; non-fasted animal): 35 ± 7 min
- time constant τ1, biexponential decay ([3]; non-fasted animal): 3.3 ± 0.1 min
Structure (SMILES): N[C@@H](Cc1ccccc1)C(=O)O [phenylalanine]

Structure (SMILES): CN[C@H](CC(C)C)C(=O)N[C@H]1C(=O)N[C@@H](CC(N)=O)C(=O)N[C@H]2C(=O)N[C@H]3C(=O)N[C@H](C(=O)N[C@H](C(=O)O)c4cc(O)cc(O)c4-c4cc3ccc4O)[C@H](O)c3ccc(c(Cl)c3)Oc3cc2cc(c3O[C@@H]2O[C@H](CO)[C@@H](O)[C@H](O)[C@H]2O[C@H]2C[C@](C)(N)[C@H](O)[C@H](C)O2)Oc2ccc(cc2Cl)[C@H]1O [vancomycin]
- time constant of monoexponential concentration decay ([4]; after 30 mg/kg intravenous infusion, three separate animals, ± = 95% confidence intervals): 33.1 ± 0.5 min and 37.3 ± 0.7 min and 47.4 ± 1.3 min
- measured concentration prior to drug infusion ([4]; pre-infusion): 1.1 ± 1.7 µM
- Kd [5]: 0.144 ± 0.031 mM
